Like-named read-outs stand apart in the source and are kept apart here.
Columns and labels:
cancer cells = experiment: Survival rate of cancer cells after test compound is added (flow cytometry, Annexin V-FITC/PI, clinical specimen); type: cell-based, patient; settings: Homo sapiens, 18 h, read-out: Survival rate (%) All cells (Stem cells and ordinary cells)
How it was run: (§1)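 Ficoll-isolated mononuclear cells from patient specimens (e.g. AML) in serum-free IMDM at 1×10^6/mL were exposed to compound for 18 hours. Cells were stained for stem-cell markers (CD34+CD38+ for AML) plus Annexin V-FITC/PI, and apoptosis was read by flow cytometry within one hour.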

[1] = tested on: IL-1β secreted by synoviocyte; experiment: Content of IL-1β in culture supernatant of synoviocyte of RA model rats given test compound; type: in vivo; settings: rat RA model, dose 30 mg/kg.2d; normal control 0.16 ± 0.034, NaCl 0.49 ± 0.136; 30 mg/kg
How it was run: (§2)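 Animals with induced RA are grouped and dosed with compound (30 mg/kg.2d) alongside NaCl and normal controls. Synoviocytes are prepared and cultured, and supernatants are harvested. TNF-α and PGE2 secretion are then quantified by one procedure, IL-1β by another.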

[2] = tested on: PGE2 secreted by synoviocyte; experiment: Content of PGE2 in culture supernatant of synoviocyte of RA model rats given test compound; type: in vivo; settings: rat RA model, dose 30 mg/kg.2d; normal control 8.34 ± 1.29, NaCl 32.44 ± 10.32; 30 mg/kg
How it was run: as §2

cancer stem cells = experiment: Survival rate of cancer stem cells after test compound is added (flow cytometry, Annexin V-FITC/PI, clinical specimen); type: cell-based, patient; settings: Homo sapiens, 18 h
How it was run: as §1

normal cells = experiment: Survival rate of normal cells after test compound is added (flow cytometry, Annexin V-FITC/PI); type: cell-based; settings: 18 h
How it was run: as §1

[3] = Head and neck squamous cell carcinomas
[4] = read-out: Survival rate (%) All cells (Stem cells and ordinary cells)
[5] = read-out: Survival rate (%) Stem cells

**Q.** Which viability at 10 µM (cancer cells; AML) does the source give for `CC1=C2CC[C@@](C)(O)[C@@H]2[C@H]2OC(=O)[C@@H](CN(C)C)[C@@H]2CC1` [Compound 23] here?
**A.** 92%

**Q.** What about the viability at 20 µM (cancer cells; AML) of the same molecule?
**A.** 84%

**Q.** What about the viability at 10 µM (cancer cells; Brain glioma) of the same molecule?
**A.** 88%

**Q.** And the viability at 20 µM (cancer cells; Brain glioma)?
**A.** 85%

**Q.** What about the viability at 10 µM (cancer cells; Brain tumor) of the same molecule?
**A.** 89%

**Q.** What about the viability at 20 µM (cancer cells; Brain tumor) of the same molecule?
**A.** 85%

**Q.** And the viability at 10 µM (cancer cells; Breast cancer)?
**A.** 89%

**Q.** What about the viability at 20 µM (cancer cells; Breast cancer) of the same molecule?
**A.** 86%

**Q.** And the viability at 10 µM (cancer cells; CLL)?
**A.** 95%

**Q.** And the viability at 20 µM (cancer cells; CLL)?
**A.** 85%

**Q.** What about the viability at 10 µM (cancer cells; CML) of the same molecule?
**A.** 91%

**Q.** And the viability at 20 µM (cancer cells; CML)?
**A.** 79%

**Q.** And the viability at 10 µM (cancer cells; Children hepatoblastoma)?
**A.** 93%

**Q.** And the viability at 20 µM (cancer cells; Children hepatoblastoma)?
**A.** 86%

**Q.** What about the viability at 10 µM (cancer cells; Colon adenocarcinoma) of the same molecule?
**A.** 91%

**Q.** And the viability at 20 µM (cancer cells; Colon adenocarcinoma)?
**A.** 89%

**Q.** What about the viability at 10 µM (cancer cells; Colorectal cancer) of the same molecule?
**A.** 88%

**Q.** And the viability at 20 µM (cancer cells; Colorectal cancer)?
**A.** 81%

**Q.** And the viability at 10 µM (cancer cells; Gastric cancer)?
**A.** 86%

**Q.** What about the viability at 20 µM (cancer cells; Gastric cancer) of the same molecule?
**A.** 84%

**Q.** And the viability at 10 µM (cancer cells; Gastrointestinal tumor)?
**A.** 94%

**Q.** What about the viability at 20 µM (cancer cells; Gastrointestinal tumor) of the same molecule?
**A.** 88%

**Q.** What about the viability at 10 µM (cancer cells; Glioma) of the same molecule?
**A.** 94%

**Q.** And the viability at 20 µM (cancer cells; Glioma)?
**A.** 87%

**Q.** What about the viability at 10 µM (cancer cells; [3]) of the same molecule?
**A.** 91%

**Q.** What about the viability at 20 µM (cancer cells; [3]) of the same molecule?
**A.** 88%

**Q.** What about the viability at 10 µM (cancer cells; Laryngeal cancer) of the same molecule?
**A.** 88%

**Q.** What about the viability at 20 µM (cancer cells; Laryngeal cancer) of the same molecule?
**A.** 82%

**Q.** What about the viability at 10 µM (cancer cells; Liver cancer) of the same molecule?
**A.** 88%

**Q.** What about the viability at 20 µM (cancer cells; Liver cancer) of the same molecule?
**A.** 87%

**Q.** And the viability at 10 µM (cancer cells; Lung adenocarcinoma)?
**A.** 87%

**Q.** What about the viability at 20 µM (cancer cells; Lung adenocarcinoma) of the same molecule?
**A.** 87%

**Q.** And the viability at 10 µM (cancer cells; Lung cancer)?
**A.** 88%

**Q.** What about the viability at 20 µM (cancer cells; Lung cancer) of the same molecule?
**A.** 84%

**Q.** What about the viability at 10 µM (cancer cells; Malignant melanoma) of the same molecule?
**A.** 89%

**Q.** What about the viability at 20 µM (cancer cells; Malignant melanoma) of the same molecule?
**A.** 86%

**Q.** And the viability at 10 µM (cancer cells; Nasopharynx cancer)?
**A.** 94%

**Q.** And the viability at 20 µM (cancer cells; Nasopharynx cancer)?
**A.** 81%

**Q.** And the viability at 10 µM (cancer cells; Ovarian cancer)?
**A.** 91%

**Q.** And the viability at 20 µM (cancer cells; Ovarian cancer)?
**A.** 84%

**Q.** What about the viability at 10 µM (cancer cells; Pancreatic cancer) of the same molecule?
**A.** 90%

**Q.** And the viability at 20 µM (cancer cells; Pancreatic cancer)?
**A.** 86%

**Q.** And the viability at 10 µM (cancer cells; Prostate cancer)?
**A.** 92%

**Q.** What about the viability at 20 µM (cancer cells; Prostate cancer) of the same molecule?
**A.** 89%

**Q.** What about the viability at 10 µM (cancer cells; Retinoblastoma) of the same molecule?
**A.** 91%

**Q.** What about the viability at 20 µM (cancer cells; Retinoblastoma) of the same molecule?
**A.** 85%

**Q.** And the viability at 10 µM (cancer cells; Skin cancer)?
**A.** 95%

**Q.** What about the viability at 20 µM (cancer cells; Skin cancer) of the same molecule?
**A.** 87%

**Q.** What about the “Content of IL-1β in culture supernatant of synoviocyte (x ± s)” value [1] of the same molecule?
**A.** 0.36 ± 0.065 ng/mL

**Q.** And the “Content of PGE2 in culture supernatant of synoviocyte (x ± s)” value [2]?
**A.** 21.71 ± 2.32 ng/mL

**Q.** What about the viability at 10 µM (cancer stem cells; AML) of the same molecule?
**A.** 85%

**Q.** And the viability at 20 µM (cancer stem cells; AML)?
**A.** 72%

**Q.** What about the viability at 10 µM (cancer stem cells; Brain glioma) of the same molecule?
**A.** 84%

**Q.** What about the viability at 20 µM (cancer stem cells; Brain glioma) of the same molecule?
**A.** 76%

**Q.** And the viability at 10 µM (cancer stem cells; Brain tumor)?
**A.** 85%

**Q.** And the viability at 20 µM (cancer stem cells; Brain tumor)?
**A.** 73%

**Q.** And the viability at 10 µM (cancer stem cells; Breast cancer)?
**A.** 84%

**Q.** What about the viability at 20 µM (cancer stem cells; Breast cancer) of the same molecule?
**A.** 74%

**Q.** What about the viability at 10 µM (cancer stem cells; CLL) of the same molecule?
**A.** 86%

**Q.** What about the viability at 20 µM (cancer stem cells; CLL) of the same molecule?
**A.** 74%

**Q.** What about the viability at 10 µM (cancer stem cells; CML) of the same molecule?
**A.** 87%

**Q.** What about the viability at 20 µM (cancer stem cells; CML) of the same molecule?
**A.** 71%

**Q.** What about the viability at 10 µM (cancer stem cells; Children hepatoblastoma) of the same molecule?
**A.** 85%

**Q.** What about the viability at 20 µM (cancer stem cells; Children hepatoblastoma) of the same molecule?
**A.** 79%

**Q.** And the viability at 10 µM (cancer stem cells; Colon adenocarcinoma)?
**A.** 88%

**Q.** What about the viability at 20 µM (cancer stem cells; Colon adenocarcinoma) of the same molecule?
**A.** 81%

**Q.** And the viability at 10 µM (cancer stem cells; Colorectal cancer)?
**A.** 79%

**Q.** And the viability at 20 µM (cancer stem cells; Colorectal cancer)?
**A.** 72%

**Q.** And the viability at 10 µM (cancer stem cells; Gastric cancer)?
**A.** 82%

**Q.** What about the viability at 20 µM (cancer stem cells; Gastric cancer) of the same molecule?
**A.** 77%

**Q.** What about the viability at 10 µM (cancer stem cells; Gastrointestinal tumor) of the same molecule?
**A.** 91%

**Q.** And the viability at 20 µM (cancer stem cells; Gastrointestinal tumor)?
**A.** 82%

**Q.** What about the viability at 10 µM (cancer stem cells; Glioma) of the same molecule?
**A.** 87%

**Q.** What about the viability at 20 µM (cancer stem cells; Glioma) of the same molecule?
**A.** 76%

**Q.** What about the viability at 10 µM (cancer stem cells; [3]) of the same molecule?
**A.** 84%

**Q.** What about the viability at 20 µM (cancer stem cells; [3]) of the same molecule?
**A.** 78%

**Q.** And the viability at 10 µM (cancer stem cells; Laryngeal cancer)?
**A.** 79%

**Q.** What about the viability at 20 µM (cancer stem cells; Laryngeal cancer) of the same molecule?
**A.** 73%

**Q.** And the viability at 10 µM (cancer stem cells; Liver cancer)?
**A.** 82%

**Q.** And the viability at 20 µM (cancer stem cells; Liver cancer)?
**A.** 79%

**Q.** What about the viability at 10 µM (cancer stem cells; Lung adenocarcinoma) of the same molecule?
**A.** 85%

**Q.** What about the viability at 20 µM (cancer stem cells; Lung adenocarcinoma) of the same molecule?
**A.** 82%

**Q.** What about the viability at 10 µM (cancer stem cells; Lung cancer) of the same molecule?
**A.** 85%

**Q.** And the viability at 20 µM (cancer stem cells; Lung cancer)?
**A.** 78%

**Q.** And the viability at 10 µM (cancer stem cells; Malignant melanoma)?
**A.** 82%

**Q.** What about the viability at 20 µM (cancer stem cells; Malignant melanoma) of the same molecule?
**A.** 76%

**Q.** What about the viability at 10 µM (cancer stem cells; Nasopharynx cancer) of the same molecule?
**A.** 85%

**Q.** What about the viability at 20 µM (cancer stem cells; Nasopharynx cancer) of the same molecule?
**A.** 74%

**Q.** And the viability at 10 µM (cancer stem cells; Ovarian cancer)?
**A.** 87%

**Q.** And the viability at 20 µM (cancer stem cells; Ovarian cancer)?
**A.** 75%

**Q.** And the viability at 10 µM (cancer stem cells; Pancreatic cancer)?
**A.** 87%

**Q.** And the viability at 20 µM (cancer stem cells; Pancreatic cancer)?
**A.** 77%

**Q.** What about the viability at 10 µM (cancer stem cells; Prostate cancer) of the same molecule?
**A.** 85%

**Q.** And the viability at 20 µM (cancer stem cells; Prostate cancer)?
**A.** 77%

**Q.** And the viability at 10 µM (cancer stem cells; Retinoblastoma)?
**A.** 82%

**Q.** What about the viability at 20 µM (cancer stem cells; Retinoblastoma) of the same molecule?
**A.** 74%

**Q.** What about the viability at 10 µM (cancer stem cells; Skin cancer) of the same molecule?
**A.** 85%

**Q.** And the viability at 20 µM (cancer stem cells; Skin cancer)?
**A.** 75%

**Q.** What about the viability at 10 µM (normal cells; [4]) of the same molecule?
**A.** 96%

**Q.** What about the viability at 10 µM (normal cells; [5]) of the same molecule?
**A.** 93%

**Q.** And the viability at 20 µM (normal cells; [4])?
**A.** 95%

**Q.** What about the viability at 20 µM (normal cells; [5]) of the same molecule?
**A.** 92%
